# Data published in patent US6255339A, “Tetrahydronaphthofuranone derivatives and process for producing the same” (Meiji Seika Kaisha, Ltd., priority 1996, dated 2001).
# Molecular target: T1, progesterone receptor (Sus scrofa, UniProt D0EWS6)
# T1 construct: from tissue; host or cells: hog uterus, cytosol (100,000×g supernatant)
# T1 sequence (D0EWS6 1-934): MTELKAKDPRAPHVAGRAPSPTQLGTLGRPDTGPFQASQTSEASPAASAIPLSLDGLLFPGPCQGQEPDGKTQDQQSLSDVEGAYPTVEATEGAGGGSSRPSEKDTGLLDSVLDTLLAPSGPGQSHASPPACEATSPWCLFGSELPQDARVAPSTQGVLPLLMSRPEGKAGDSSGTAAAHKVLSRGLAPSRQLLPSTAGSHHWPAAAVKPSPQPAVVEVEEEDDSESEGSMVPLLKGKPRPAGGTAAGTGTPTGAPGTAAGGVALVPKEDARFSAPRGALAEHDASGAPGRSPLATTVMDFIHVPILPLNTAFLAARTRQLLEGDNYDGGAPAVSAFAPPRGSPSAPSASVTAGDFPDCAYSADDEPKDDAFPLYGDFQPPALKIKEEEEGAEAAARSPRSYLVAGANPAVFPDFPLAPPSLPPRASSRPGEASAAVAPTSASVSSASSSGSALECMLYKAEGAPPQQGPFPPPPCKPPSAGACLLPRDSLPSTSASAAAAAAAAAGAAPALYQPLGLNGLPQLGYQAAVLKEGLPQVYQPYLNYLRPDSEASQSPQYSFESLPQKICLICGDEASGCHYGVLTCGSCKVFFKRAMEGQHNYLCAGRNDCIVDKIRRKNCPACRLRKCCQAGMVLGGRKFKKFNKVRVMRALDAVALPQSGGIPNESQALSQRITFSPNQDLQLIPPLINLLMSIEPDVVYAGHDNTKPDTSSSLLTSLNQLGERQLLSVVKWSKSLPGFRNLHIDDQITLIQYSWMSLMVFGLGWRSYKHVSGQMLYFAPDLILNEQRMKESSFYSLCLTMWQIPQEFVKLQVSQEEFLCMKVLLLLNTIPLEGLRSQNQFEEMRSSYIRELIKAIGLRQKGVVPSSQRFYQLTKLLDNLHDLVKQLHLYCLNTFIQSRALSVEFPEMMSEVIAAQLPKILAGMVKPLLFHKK
# Assay: progesterone receptor binding inhibition ([^3 H]-progesterone, cytosol from uteri of hogs)
# Conditions: [^3 H]-progesterone ligand, hog uterus cytosol, 60 min at 4° C.; read-out: Inhibitory activity (IC50) against progesterone receptor binding
# Protocol: That is, uteri taken from hogs in 5 mM phosphate buffer were disrupted using Polytron homogenizer, and the resulting solution was centrifuged (100,000×g, 30 min) to separate the supernatant, thereby preparing a cytosol containing progesterone receptor. […] Then, 100 μl of a 0.5% activated carbon solution was added to the reaction solution, and the mixture was allowed to stand for 10 min and then centrifuged (2,000×g, 10 min). The radioactivity of the supernatant was measured with a liquid scintillation counter.
# Separately, the radioactivity was measured in the same manner as described above, except that no test drug was added. Further, the radioactivity was measured in the same manner as described above, except that 10 μl of Medroxyprogesterone Acetate (MPA) (10 μg/ml) was added instead of the test drug. The radioactivity with no test drug added was defined as the amount of total binding of [^3 H]-progesterone to the cytosol, and the radioactivity with MPA added was defined as the amount of non-specific binding. The inhibition ratio was calculated from these measured values by the following equation to determine the binding inhibitory activity (IC50). [formula]
row,IC50,Compound
1,29 nM,"CC1=C2C[C@@]3(C)C(=C[C@@H](O)[C@H](OC(=O)c4cccs4)[C@@H]3C)C=C2OC1=O [Example A45, (4aR,5R,6R,7R)-7-Hydroxy-6-(2-thiophencarbonyl)oxy-4a,5,6,7-tetrahydro-3,4a, 5-trimethylnaphtho[2,3-b]furan-2(4H)-one]"
2,288 nM,"CCCNC(=O)O[C@H]1[C@@H](O)C=C2C=C3OC(=O)C(C)=C3C[C@]2(C)[C@H]1C [Example A6b, (4aR,5R,6R,7S)-7-Hydroxy-6-(n-propyl)carbamoyloxy-4a,5,6,7-tetrahydro-3,4a,5-trimethylnaphtho[2,3-b]furan-2(4H)-one]"
3,18 nM,"CC1=C2C[C@@]3(C)C(=C[C@H](O)[C@H](OC(=O)c4ccc([N+](=O)[O-])cc4)[C@@H]3C)C=C2OC1=O [Example A23, (4aR,5R,6R,7S)-7-Hydroxy-6-(4-nitrobenzoyl)oxy-4a,5,6,7-tetrahydro-3,4a,5-trimethylnaphtho[2,3-b]furan-2(4H)-one]"
4,54 nM,"CC1=C2C[C@@]3(C)C(=CC[C@H](OC(=O)c4ccccc4)[C@@H]3C)C=C2OC1=O (relative stereo) [Example B7, (4aR*,5R*,6S*)-6-Benzoyloxy-4a,5,6,7-tetrahydro-3,4a,5-trimethylnaphtho[2,3-b]furan-2(4H)-one]"
5,60 nM,"C[C@H]1[C@@H](OC(=O)c2ccco2)CC=C2C=C3OC(=O)C=C3C[C@@]21C (relative stereo) [Example B30, (4aR*,5R*,6S*)-4a,5-Dimethyl-6-(2-furoyl)oxy-4a,5,6,7-tetrahydronaphtho[2,3-b]furan-2(4H)-one]"
6,17 nM,"CC1=C2C[C@@]3(C)C(=C[C@H](O)[C@H](OC(=O)C4CC4)[C@@H]3C)C=C2OC1=O [Example A17, (4aR,5R,6R,7S)-6-Cyclopropylcarbonyloxy-7-hydroxy-4a,5,6,7-tetrahydro-3,4a,5-trimethylnaphtho[2,3-b]furan-2(4H)-one]"
7,2840 nM,"CC1=C2C[C@@]3(C)C(=C[C@H](OCc4ccccc4)[C@H](O)[C@@H]3C)C=C2OC1=O [Example A7, (4aR,5R,6R,7S)-7-Benzyloxy-6-hydroxy-4a,5,6,7-tetrahydro-3,4a,5-trimethylnaphtho[2,3-b]furan-2(4H)-one]"
8,75 nM,"CCC(=O)O[C@H]1[C@H](OC)C=C2C=C3OC(=O)C(C)=C3C[C@]2(C)[C@H]1C [Example A10, (4aR,5R,6R,7R)-7-Methoxy-6-propionyloxy-4a,5,6,7-tetrahydro-3,4a,5-trimethylnaphtho[2,3-b]furan-2(4H)-one]"
9,1000 nM,"CCC(=O)O[C@H]1C=C2C=C3OC(=O)C(C)=C3C[C@]2(C)[C@@H](C)[C@H]1O [Example A1, (4aR,5R,6R,7S)-6-Hydroxy-7-propionyloxy-4a,5,6,7-tetrahydro-3,4a,5-trimethylnaphtho[2,3-b]furan-2(4H)-one]"
10,12 nM,"CC1=C2C[C@@]3(C)C(=C[C@H](O)[C@H](OC(=O)c4ccco4)[C@@H]3C)C=C2OC1=O [Example A3, (4aR,5R,6R,7S)-6-(2-Furancarbonyl)oxy-7-hydroxy-4a,5,6,7-tetrahydro-3,4a,5-trimethylnaphtho[2,3-b]furan-2(4H)-one]"

# Continued, compound first:
row,Compound,IC50
1,CCC(=O)O[C@H]1CC=C2C=C3OC(=O)C=C3C[C@]2(C)[C@H]1C (relative stereo) [Example B28],66 nM
2,"CC(=O)O[C@@H]1C=C2C=C3OC(=O)C(C)=C3C[C@]2(C)[C@@H](C)[C@H]1OC(=O)c1ccco1 [Example A44, (4aR,5R,6R,7R)-7-Acetoxy-6-(2-furancarbonyl)oxy-4a,5,6,7-tetrahydro-3,4a,5-trimethylnaphtho[2,3-b]furan-2(4H)-one]",276 nM
3,"COCO[C@H]1C=C2C=C3OC(=O)C(C)=C3C[C@]2(C)[C@@H](C)[C@H]1OC(=O)c1ccccc1 [Example A8, (4aR,5R,6R,7S)-6-Benzoyloxy-7-methoxymethoxy-4a,5,6,7-tetrahydro-3,4a,5-trimethylnaphtho[2,3-b]furan-2(4H)-one]",97 nM
4,"CCCC(=O)O[C@H]1CC=C2C=C3OC(=O)C(C)=C3C[C@]2(C)[C@H]1C (relative stereo) [Example B4, (4aR*,5R*,6S*)-6-Butyryloxy-4a,5,6,7-tetrahydro-3,4a,5-trimethylnaphtho[2,3-b]furan-2(4H)-one]",53 nM
5,"CO[C@H]1C=C2C=C3OC(=O)C(C)=C3C[C@]2(C)[C@@H](C)[C@H]1OC(C)=O [Example A30, (4aR,5R,6R,7S)-6-Acetoxy-7-methoxy-4a,5,6,7-tetrahydro-3,4a, 5-trimethylnaphtho[2,3-b]furan-2(4H)-one]",47 nM
6,CC(=O)O[C@H]1CC=C2C=C3OC(=O)C(C)=C3C[C@]2(C)[C@H]1C [B42 (Natural type)],33 nM
7,"CC(=O)O[C@H]1CC=C2C=C3OC(=O)C(C)=C3C[C@]2(C)[C@H]1C (relative stereo) [Example B2, (4aR*,5R*,6S*)-6-Acetoxy-4a,5,6,7-tetrahydro-3,4a,5-trimethylnaphtho[2,3-b]furan-2(4H)-one]",55 nM
8,"CC1=C2C[C@@]3(C)C(=C[C@H](O)[C@H](OC(=O)C4CCCCC4)[C@@H]3C)C=C2OC1=O [Example A19, (4aR,5R,6R,7S)-6-Cyclohexylcarbonyloxy-7-hydroxy-4a,5,6,7-tetrahydro-3,4a,5-trimethylnaphtho[2,3-b]furan-2(4H)-one]",47 nM
9,CC(=O)O[C@@H]1CC=C2C=C3OC(=O)C(C)=C3C[C@@]2(C)[C@@H]1C [Example B42 (Nonnatural type)],797 nM
10,"CC1=C2C[C@@]3(C)C(=C[C@H](O)[C@H](OC(=O)c4ccccc4)[C@@H]3C)C=C2OC1=O [Example A21, (4aR,5R,6R,7S)-6-Benzoyloxy-7-hydroxy-4a,5,6,7-tetrahydro-3,4a,5-trimethylnaphtho[2,3-b]furan-2(4H)-one]",27 nM
11,"CCO[C@@H]1C=C2C=C3OC(=O)C(C)=C3C[C@]2(C)[C@@H](C)[C@H]1OC(=O)c1cccs1 [Example A41, (4aR,5R,6R,7R)-7-Ethoxy-6-(2-thiophencarbonyl)oxy-4a,5,6,7-tetrahydro-3,4a,5-trimethylnaphtho[2,3-b]furan-2(4H)-one]",400 nM
12,"CC1=C2C[C@@]3(C)C(=C[C@H](O)[C@H](OC(=O)CCl)[C@@H]3C)C=C2OC1=O [Example A12, (4aR,5R,6R,7S)-6-Chloroacetoxy-7-hydroxy-4a,5,6,7-tetrahydro-3,4a,5-trimethylnaphtho[2,3-b]furan-2(4H)-one]",83 nM
13,"CCC(=O)O[C@H]1[C@@H](OC(=O)CC)C=C2C=C3OC(=O)C(C)=C3C[C@]2(C)[C@H]1C [Example A4, (4aR,5R,6R,7S)-6,7-Dipropionyloxy-4a,5,6,7-tetrahydro-3,4a,5-trimethylnaphtho[2,3-b]furan-2(4H)-one]",32 nM
14,"CC(=O)O[C@H]1CC=C2C=C3OC(=O)C=C3C[C@]2(C)[C@H]1C (relative stereo) [Example B27, (4aR*,5R*,6S*)-6-Acetoxy-4a,5-dimethyl-4a,5,6,7-tetrahydronaphtho [2,3-b]furan-2(4H)-one]",39 nM

# Tested on: not listed separately
# Assay: Solubility
# Assay type: physicochemical
# Conditions: organic solvents
row,Compound,Solubility (solvents in which soluble)
1,CC(=O)O[C@H]1[C@@H](O)C=C2C=C3OC(=O)C(C)=C3C[C@]2(C)[C@H]1C [PF1092A],"soluble in chloroform, acetone, ethyl acetate, methanol and dimethyl sulioxide"
2,CC1=C2C[C@@]3(C)C(=C[C@H](O)[C@H](O)[C@@H]3C)C=C2OC1=O [PF1092C],"soluble in chloroform, acetone, ethyl acetate, methanol and dimethyl sultoxide"
3,CC(=O)O[C@H]1C=C2C=C3OC(=O)C(C)=C3C[C@]2(C)[C@@H](C)[C@H]1O [PF1092B],"soluble in chloroform, acetone, ethyl acetate, methanol and dimethyl sulioxide"

# Same assay, conditions: water and hexane
row,Solubility (solvents in which insoluble),Compound
1,insoluble in water and hexane,CC(=O)O[C@H]1[C@@H](O)C=C2C=C3OC(=O)C(C)=C3C[C@]2(C)[C@H]1C [PF1092A]
2,insoluble in water and hexane,CC1=C2C[C@@]3(C)C(=C[C@H](O)[C@H](O)[C@@H]3C)C=C2OC1=O [PF1092C]
3,insoluble in water and hexane,CC(=O)O[C@H]1C=C2C=C3OC(=O)C(C)=C3C[C@]2(C)[C@@H](C)[C@H]1O [PF1092B]

# Tested on: not listed separately
# Assay: Acute Toxicity
# Assay type: in vivo, SD male rat
# Conditions: SD male rat (16 weeks old), hypodermic, 60 mg/kg in 0.2% methylcellulose
# Protocol: The compound of Example A4 dissolved in 0.2% of methylcellulose solution was hypodermically administered to SD male rat (16 weeks old) at a dose of 60 mg/kg.
row,Compound,survival
1,"CCC(=O)O[C@H]1[C@@H](OC(=O)CC)C=C2C=C3OC(=O)C(C)=C3C[C@]2(C)[C@H]1C [Example A4, (4aR,5R,6R,7S)-6,7-Dipropionyloxy-4a,5,6,7-tetrahydro-3,4a,5-trimethylnaphtho[2,3-b]furan-2(4H)-one]",all the animals survived

# Same assay, conditions: rat, in vivo, 60 mg/kg
row,Compound,toxicity
1,"CCC(=O)O[C@H]1[C@@H](OC(=O)CC)C=C2C=C3OC(=O)C(C)=C3C[C@]2(C)[C@H]1C [Example A4, (4aR,5R,6R,7S)-6,7-Dipropionyloxy-4a,5,6,7-tetrahydro-3,4a,5-trimethylnaphtho[2,3-b]furan-2(4H)-one]",no significant toxicity
